Source: patent publication US8785452B2, “Anti-infective compounds” (priority 2008, dated 2014)
Where two headings read alike, the source gives them in different places.

Tests used:
[1] = test system: M. tuberculosis H37Rv-GFP; assay: microbe, parasite or virus in culture; type: cell-based; details: Mycobacterium tuberculosis; for inhibition at 0.2 µM: read-out: QUM Confirm % Inhibition 0.2 uM; for inhibition at 2 µM: read-out: QUM Confirm % Inhibition 2 uM; for inhibition at 20 µM: read-out: QUM Confirm % Inhibition 20 uM
Raw264.7 cells = assay: Cell number (CellNb) from image analysis of the phenotypic cell-based assay
[2] = test system: M. tuberculosis H37Rv-GFP; assay: microbe, parasite or virus in culture; type: cell-based, Mycobacterium tuberculosis; details: Mycobacterium tuberculosis, H37RV, Macrophage; for inhibition at 0.2 µM: read-out: QIM Confirm % Inhibition 0.2 uM; for inhibition at 2 µM: read-out: QIM Confirm % Inhibition 2 uM
[3] = confirmation, 0.2 uM, intracellular
[4] = confirmation, 2 uM, intracellular
[5] = confirmation, 20 uM, read-out: QIM Confirm % Inhibition 20 uM
[6] = primary screen, 20 μM, read-out: Primary QIM % Inhibition
[7] = read-out: Primary QIM % Inhibition
[8] = read-out: QIM Confirm % Inhibition 20 uM

Row | Structure (SMILES) | inhibition at 0.2 µM [1] | inhibition at 2 µM [1] | inhibition at 20 µM [1] | QIM Confirm CellNb 0.2 uM (Raw264.7 cells; confirmation, 0.2 uM) | QIM Confirm CellNb 2 uM (Raw264.7 cells; confirmation, 2 uM) | QIM Confirm CellNb 20 uM (Raw264.7 cells; confirmation, 20 uM) | Primary QIM CellNb (Raw264.7 cells; primary screen, 20 μM) | inhibition at 0.2 µM [2, 3] | inhibition at 2 µM [2, 4] | inhibition at 20 µM [2, 5] | inhibition at 20 µM [2, 6] | Primary QIM CellNb (Raw264.7 cells) | QIM Confirm CellNb 0.2 uM (Raw264.7 cells) | QIM Confirm CellNb 2 uM (Raw264.7 cells) | QIM Confirm CellNb 20 uM (Raw264.7 cells) | inhibition at 20 µM [2, 7] | inhibition at 0.2 µM [2] | inhibition at 2 µM [2] | inhibition at 20 µM [2, 8]
1 | O=C(Nc1ccc([N+](=O)[O-])cc1)C12CC3CC(CC(C3)C1)C2 [IPK 000 022 33] | 35.7% | 45.4% | 74.2% | 315.6 | 472.3 | 517.1 | 372.0 | 30.3% | 33.5% | 90% | 66% | – | – | – | – | – | – | – | –
2 | CCCSc1nnc(-c2ccc(Cl)cc2Cl)o1 [IPK 000 024 43] | 34.7% | 40.1% | 67.7% | 352.1 | 349.0 | 205.0 | 203.8 | 50.4% | 58.3% | 59.1% | 5.8% | – | – | – | – | – | – | – | –
3 | O=C(NCCOc1ccccc1Cl)c1cc([N+](=O)[O-])cc([N+](=O)[O-])c1 [IPK 000 027 72] | 35.1% | 97.6% | 101% | 267.0 | 440.4 | 238.1 | 333.3 | 29.3% | 77.7% | 100% | 82.6% | – | – | – | – | – | – | – | –
4 | COc1ccccc1OCCNC(=O)c1cc([N+](=O)[O-])cc([N+](=O)[O-])c1 [IPK 000 027 74] | 43.5% | 97.5% | 100% | – | – | – | – | – | – | – | – | 366.0 | 268.5 | 478.8 | 435.8 | 87.2% | -2.7% | 83.3% | 96.9%
5 | COc1cccc(OCCNC(=O)c2cc([N+](=O)[O-])cc([N+](=O)[O-])c2)c1 [IPK 000 027 77] | 40.2% | 96.8% | 100% | – | – | – | – | – | – | – | – | 378.0 | 218.1 | 315.3 | 322.3 | 89.1% | -12.6% | 47.7% | 86.3%
6 | CC(C)c1ccc(CNC(=O)c2cc([N+](=O)[O-])cc([N+](=O)[O-])c2)cc1 [IPK 000 027 78] | 71.7% | 97.5% | 78.2% | 366.0 | 543.5 | 499.4 | 332.0 | 33% | 99.3% | 96.3% | 79.6% | – | – | – | – | – | – | – | –
7 | O=C(NCc1ccc2c(c1)OCO2)c1cc([N+](=O)[O-])cc([N+](=O)[O-])c1 [IPK 000 027 85] | 97.2% | 97.9% | 71.7% | 429.3 | 487.4 | 224.8 | 315.0 | 83% | 99.4% | 40.1% | 100% | – | – | – | – | – | – | – | –
8 | O=C(NCCOCc1ccccc1)c1cc([N+](=O)[O-])cc([N+](=O)[O-])c1 [IPK 000 027 91] | 65.8% | 97.6% | 75% | – | – | – | – | – | – | – | – | 410.8 | 295.3 | 434.1 | 325.6 | 89% | 14.2% | 98.5% | 46.1%
9 | COc1ccc(OCCNC(=O)c2cc([N+](=O)[O-])cc([N+](=O)[O-])c2)cc1 [IPK 000 028 35] | 94% | 98.1% | 48.3% | – | – | – | – | – | – | – | – | 315.3 | 489.8 | 478.6 | 308.9 | 94.5% | 64.5% | 102% | 17.8%
10 | O=C(Nc1ccc(Oc2ccccc2)cc1)C1CCCO1 (centres unmarked) [IPK 000 033 16] | 34.1% | 42% | 61.3% | 296.1 | 573.9 | 303.9 | 283.0 | 5% | 69.6% | 92.3% | 81.9% | – | – | – | – | – | – | – | –
